Tests used:
[1] = target: T1, USP5 (Homo sapiens, UniProt P45974); assay: HA-UbVS competitive labelling, non-proteasomal DUB; type: binding
T1 sequence (P45974 1-858): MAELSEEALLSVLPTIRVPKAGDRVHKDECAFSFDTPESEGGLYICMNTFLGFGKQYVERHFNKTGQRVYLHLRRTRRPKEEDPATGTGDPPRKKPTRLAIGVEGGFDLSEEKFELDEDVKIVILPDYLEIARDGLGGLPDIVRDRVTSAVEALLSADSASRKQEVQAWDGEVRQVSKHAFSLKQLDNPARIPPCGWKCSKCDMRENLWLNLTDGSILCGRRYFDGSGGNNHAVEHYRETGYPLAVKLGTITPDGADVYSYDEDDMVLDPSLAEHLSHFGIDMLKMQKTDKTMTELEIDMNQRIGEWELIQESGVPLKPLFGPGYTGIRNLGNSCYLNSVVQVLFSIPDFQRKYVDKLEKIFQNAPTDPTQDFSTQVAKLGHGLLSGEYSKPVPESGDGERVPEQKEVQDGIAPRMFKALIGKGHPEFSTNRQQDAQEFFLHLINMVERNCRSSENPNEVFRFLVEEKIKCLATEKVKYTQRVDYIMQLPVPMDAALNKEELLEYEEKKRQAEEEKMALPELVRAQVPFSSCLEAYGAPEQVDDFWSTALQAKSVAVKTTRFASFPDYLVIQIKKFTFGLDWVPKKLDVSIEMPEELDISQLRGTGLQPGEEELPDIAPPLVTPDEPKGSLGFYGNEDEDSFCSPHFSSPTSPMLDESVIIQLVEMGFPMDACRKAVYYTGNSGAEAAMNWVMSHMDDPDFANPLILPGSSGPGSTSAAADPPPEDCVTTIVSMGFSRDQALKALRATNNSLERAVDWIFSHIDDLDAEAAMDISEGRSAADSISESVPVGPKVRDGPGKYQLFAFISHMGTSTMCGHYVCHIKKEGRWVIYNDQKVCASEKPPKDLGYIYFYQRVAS
From the text: (§1) The deubiquitinating activity of the proteasome is attributed to the action of three DUBs, UCHL5, USP14 and POH1, all localized within the 19S RP 26-28. Both UCHL5 and USP14 are sensitive to N-ethylmaleimide (NEM), a general inhibitor of cysteine proteases, whereas POH1 is insensitive to inhibition by NEM but sensitive to metal chelators such as N,N,N,N-tetrakis-(2-pyridylmethyl)ethylenediamine (TPEN) (29). […] To identify specifically which DUBs were inhibited by b-AP15 treatment, competitive labelling experiments were performed using hemagglutinin tagged ubiquitin vinylsulphonone (HA-UbVS), an active site directed probe that irreversibly reacts with DUBs of the cysteine class (26).
(§2) For labelling of DUBs in cell lysates sub confluent cells were harvested by trypsinization, washed three times with PBS, and centrifuged at 1500 RPM for 5 min. Cell pellets were lysed with buffer (50 mM HEPES pH 7.4, 250 mM sucrose, 10 mM MgCl2, 2 mM ATP, 1 mM DTT) on ice for 15 min. Debris was removed by centrifugation and 25 μg of protein was labelled with 1 μM HA-UbVS for 30 min at 37° C. Samples were resolved by SDS-PAGE and analyzed by immunoblotting with indicated antibodies.

[2] = target: T2, UCHL1 (Homo sapiens, UniProt P09936); assay: HA-UbVS competitive labelling, non-proteasomal DUB; type: binding
T2 sequence (P09936 1-223): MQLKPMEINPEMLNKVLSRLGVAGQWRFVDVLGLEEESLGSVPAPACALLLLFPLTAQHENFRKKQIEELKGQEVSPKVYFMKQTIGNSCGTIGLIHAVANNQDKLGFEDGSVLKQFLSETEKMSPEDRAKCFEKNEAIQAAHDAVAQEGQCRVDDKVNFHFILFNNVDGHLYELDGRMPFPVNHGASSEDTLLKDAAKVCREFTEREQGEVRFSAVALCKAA
From the text: as §1, §2

[3] = tested on: isogenic clones of HCT116 colon cancer cells; assay: Apoptosis in isogenic HCT116 clones, caspase cleaved cytokeratin-18 ELISA; type: cell-based
Description: The increase in sub G1 DNA content is associated with (i) activation of the apoptosis mediator caspase-3 and (ii) with cleavage of the caspase substrates poly-ADP ribose polymerase (PARP) and cytokeratin-18. […] Apoptosis induction by bortezomib is dependent on p53 and inhibited by overexpression of the Bcl-2 protein (16,17).
For determination of apoptosis parental HCT-116 p53+/+ cells were treated with the increasing doses of bortezomib or b-AP15 for 24 h. […] HCT-116 cells were seeded in 96-well microtiter plates at 10,000 cells per well and incubated overnight. Cells were treated with indicated drug for 24 h. At the end of the incubation period, NP40 was added to the tissue culture medium to 0.1% and 25 μl of the content of each well was assayed using the M30-Apoptosense® ELISA as previously described (43). Cell viability was determined by measuring acid phosphatase activity or using the FMCA method (44). For the acid phosphatase activity cells were seeded at 5000 cells per well in 96-well culture plates and incubated for 12 h at 37° C. Compounds were added to the cells in growth media and incubated for 72 h at 37° C. Cells were washed with 200 μl warm PBS. […] Absorbance was measured at 405 nm.
b-AP15 inhibits degradation of ubiquitin-tagged YFP in a proteasome reporter cell line (FIG. 1a). Levels of ^UbG76V-YFP accumulation were determined by flow cytometry and immunoblotting; immunoblot of ubiquitin conjugation in HCT-116 cells treated with b-AP15 (1 μM) or bortezomib (100 nM) (FIG. 1b). […] Immunoblot of ODC-1 levels in HCT-116 cells following treatment with bortezomib ([…] or b-Ap15 (1 μM) (FIG. 1d); values represent quantified optical density units of ODC-1 normalized to β-actin. Cell cycle profiles of b-AP15 treated HCT-116 cells (FIG. 1e); cells were analyzed by propidium iodide staining and flow cytometry. Levels of caspase activity in isogenic HCT-116 cells as determined by ELISA for caspase cleaved cytokeratin-18 (CK18-Asp398) following treatment with bortezomib (100 nM) or b-AP15 (1 μM) (**′P=0.01, ***′P=0.001) (FIG. 1f). […]

C=CC(=O)N1C/C(=C\c2ccc([N+](=O)[O-])cc2)C(=O)/C(=C/c2ccc([N+](=O)[O-])cc2)C1 [b-AP15]
activity of non-proteasomal DUB USP5 [1]: without affecting the activity | activity of non-proteasomal DUB UCHL1 [2]: without affecting the activity | apoptosis: effect of genetic disruption of BAX or PUMA [3]: does not affect b-AP15 sensitivity | caspase cleavage of cytokeratin-18: effect of p53 disruption or Bcl-2 overexpression [3]: not affected by genetic disruption of p53 or overexpression of Bcl-2

— patent US9856511B2, “Protease deubiquitinating inhibitor screening” (priority 2011, dated 2018)
